Laboratory results taken from patent US20240325394A1, “SALT AND CRYSTAL FORM OF NITROGEN-CONTAINING HETEROCYCLIC DERIVATIVE, PREPARATION METHOD THEREFOR AND APPLICATION THEREOF” (SHANGHAI HANSOH BIOMEDICAL CO., LTD., priority 2020, published 2024).

Key:
[1] = Pharmacokinetics in mice (plasma) after oral administration; type: in vivo, Balb/c mice
Description: 5 g of Hydroxyethyl cellulose (HEC, CMC-Na, viscosity: 800-1200 Cps) was weighed, dissolved in 1000 mL of purified water, and 10 g of Tween 80 was added. The mixture was mixed well to form a clear solution.
The compounds of the embodiments were weighed and added into 4-mL glass bottles, respectively, 2.4 mL of the solution was added, and ultrasound was performed for 10 minutes to obtain a colorless clear solution with a concentration of 1 mg/mL.
Balb/C mice, males; PO, after overnight fasting, respectively, at a dose of 10 mg/kg, administered in a volume of 10 mL/kg.
Blood samples were collected before administration and 0.083 h, 0.25 h, 0.5 h, 1 h, 2 h, 4 h, 6 h and 8 h after administration, the blood was placed in EDTA-2K tube, centrifuged at 4° C. 6000 rpm for 6 min to separate plasma, and stored at −80° C.; food was consumed 4 hours after drug administration.

hERG potassium channel = target: T1, hERG potassium channel (Homo sapiens, UniProt Q12809); experiment: hERG potassium channel inhibitory activity test (Qpatch, CHO-hERG cells); type: cell-based; conditions: highest test concentration 40 μM, read-out: hERG (μM), inhibition at multiple concentrations on hERG current
T1 construct: expressed in transfected cells; host or cells: CHO-hERG cells
T1 sequence (Q12809 whole entry): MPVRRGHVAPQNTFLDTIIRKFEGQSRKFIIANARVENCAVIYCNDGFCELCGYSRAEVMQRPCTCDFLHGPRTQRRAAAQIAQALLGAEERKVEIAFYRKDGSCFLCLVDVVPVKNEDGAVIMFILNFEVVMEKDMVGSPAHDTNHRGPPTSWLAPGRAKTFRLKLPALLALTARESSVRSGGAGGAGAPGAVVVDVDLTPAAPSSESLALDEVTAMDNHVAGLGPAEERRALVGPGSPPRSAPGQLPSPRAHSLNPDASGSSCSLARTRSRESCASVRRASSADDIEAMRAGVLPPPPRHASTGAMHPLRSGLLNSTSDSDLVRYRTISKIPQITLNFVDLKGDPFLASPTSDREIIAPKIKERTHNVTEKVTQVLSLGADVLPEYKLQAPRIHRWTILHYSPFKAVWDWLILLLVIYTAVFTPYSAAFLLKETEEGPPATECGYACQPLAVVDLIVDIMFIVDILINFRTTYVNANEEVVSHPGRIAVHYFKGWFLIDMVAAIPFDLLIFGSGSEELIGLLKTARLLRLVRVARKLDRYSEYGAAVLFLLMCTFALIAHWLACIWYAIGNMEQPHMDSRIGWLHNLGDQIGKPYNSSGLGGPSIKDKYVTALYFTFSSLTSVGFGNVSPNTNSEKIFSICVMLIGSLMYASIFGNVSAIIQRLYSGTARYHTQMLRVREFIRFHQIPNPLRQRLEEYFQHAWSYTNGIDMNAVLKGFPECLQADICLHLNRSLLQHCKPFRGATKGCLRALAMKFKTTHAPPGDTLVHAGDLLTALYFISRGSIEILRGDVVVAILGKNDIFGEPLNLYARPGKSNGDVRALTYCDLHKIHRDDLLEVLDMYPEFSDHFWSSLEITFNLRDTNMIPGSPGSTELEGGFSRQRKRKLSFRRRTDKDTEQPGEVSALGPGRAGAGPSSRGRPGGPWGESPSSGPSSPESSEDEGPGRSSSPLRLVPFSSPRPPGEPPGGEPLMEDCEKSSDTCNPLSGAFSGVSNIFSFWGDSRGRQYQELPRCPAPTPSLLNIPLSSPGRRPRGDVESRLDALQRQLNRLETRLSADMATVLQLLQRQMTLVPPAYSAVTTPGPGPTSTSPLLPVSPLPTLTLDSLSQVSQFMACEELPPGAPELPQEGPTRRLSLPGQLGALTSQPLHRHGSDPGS
Description: 7.1.1 CHO-hERG cells were cultured in a 175 cm^2 flask, when the cell density reached 60-80%, the culture medium was removed, the cells were washed with 7 mL PBS, and then digested with 3 mL Detachin. 7.1.2 After complete digestion, 7 mL culture medium was added to neutralize, then the mixture was centrifuged, the supernatant was aspirated, and then 5 mL culture medium was added to re-suspend, ensuring 2-5×10^6/mL of cell density.
The process of single cell high impedance sealing and whole cell mode formation were all automatically completed by Qpatch instrument, after obtaining the whole cell recording mode, the cells were clamped at −80 mV, before giving a 5-second +40 mV depolarization stimulus, a 50 millisecond −50 mV prevoltage was given first, and then repolarized to −50 mV for 5 seconds, then returned to −80 mV. This voltage stimulation was applied every 15 seconds and recorded for 2 minutes before giving extracellular fluid recordings for 5 minutes, and then the administration process was started, the compound concentration was given from the lowest test concentration, each test concentration was given for 2.5 minutes, and the positive control compound 3 μM of Cisapride was given after all concentrations were continuously given. At least 3 cells (n≥3) were tested at each concentration.
7.4.1 20 mM of compound mother liquor was diluted with extracellular fluid, 5 μL of 20 mM compound mother liquor was added into 2495 μL of extracellular fluid and diluted 500-fold to 40 μM, and then the final concentration to be tested was obtained by sequential 3-fold serial dilutions in extracellular solution containing 0.2% DMSO. 7.4.2 The highest test concentration was 40 μM, in a total of 6 concentrations of 40, 13.33, 4.44, 1.48, 0.49 and 0.16 μM respectively. 7.4.3 The content of DMSO in the final test concentration was not more than 0.2%, and this concentration of DMSO had no effect on hERG potassium channel.
The experimental data were analyzed by XLFit software. […]

[2] = Plasma stability, human plasma; type: in vitro ADME
In short: (§1)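 Compound from a 10 μM working solution in 100 mM phosphate buffer was incubated at 37°C in anticoagulated plasma from each species, with propantheline as positive control. Aliquots taken at 0, 15, 30, 60, 90 and 120 min were quenched in acetonitrile with internal standard. Remaining compound was quantified by LC-MS/MS (positive ESI, MRM).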

[3] = Plasma stability, rat plasma; type: in vitro ADME; conditions: rat plasma, 37° C.
In short: as §1

CYP450 1A2 = target: T2, CYP450 1A2 (Homo sapiens, UniProt P05177); experiment: CYP enzyme single point inhibition test, human liver microsomes, 1A2; type: in vitro ADME; conditions: single point method
T2 construct: from tissue; host or cells: human liver microsomes
T2 sequence (P05177 1-516): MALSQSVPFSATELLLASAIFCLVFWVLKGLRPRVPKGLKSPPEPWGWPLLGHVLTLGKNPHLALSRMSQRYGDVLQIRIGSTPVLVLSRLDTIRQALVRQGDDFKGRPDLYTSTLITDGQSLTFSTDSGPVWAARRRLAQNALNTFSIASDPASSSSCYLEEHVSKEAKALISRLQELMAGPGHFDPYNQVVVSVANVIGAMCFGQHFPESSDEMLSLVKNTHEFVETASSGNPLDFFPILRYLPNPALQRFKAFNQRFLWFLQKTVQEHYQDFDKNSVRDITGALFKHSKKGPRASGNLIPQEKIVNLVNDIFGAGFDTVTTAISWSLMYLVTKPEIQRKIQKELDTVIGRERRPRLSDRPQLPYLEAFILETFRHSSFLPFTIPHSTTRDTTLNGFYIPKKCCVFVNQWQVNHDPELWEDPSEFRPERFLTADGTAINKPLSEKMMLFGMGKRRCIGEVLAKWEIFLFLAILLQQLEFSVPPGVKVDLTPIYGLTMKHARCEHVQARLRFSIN
Description: Using human liver microsomal incubation system, the inhibition of CYP450 enzyme subtypes by compounds was rapidly predicted by single point method.
2.5 mM NADPH: 100 mM phosphate buffer was added to 4.165 mg of NADPH (reduced nicotinamide adenine dinucleotide phosphate) to 2 mL. 0.25 mg/mL microsome: 4 mL of 100 mM phosphate buffer was added to 50 μL of 20 mg/mL microsome and mixed well.
The embodiment compound to be tested was weighed and diluted to 10 mM with DMSO and then diluted to 100 µM with 100 mM phosphate buffer.
• 1. In a 96-well plate, 40 μL of liver microsomes, 10 μL of substrate, 10 μL of compound to be tested were pre-incubated for 3 min. • 2. 40 μL of NADPH was added. • 3. 300 μL of acetonitrile termination solution containing internal standard was added at 20 min. • 4. Centrifugal injection.

[4] = Balb/c mice, PO 10 mg/kg, plasma

## C=CC(=O)N1C[C@H](C)N(c2nc(=O)n(-c3c(SC)ccnc3C(C)C)c3nc(-c4c(N)ccc(Cl)c4F)c(Cl)cc23)C[C@H]1C (atropisomer, axis not shown) [Embodiment 13-1, P-4-((2S,5R)-4-Acryloyl-2,5-dimethylpiperazin-1-yl)-7-(6-amino-3-chloro-2-fluorophenyl)-6-chloro-1-(2-isopropyl-4-(methylthio)pyridin-3-yl)pyrido[2,3-d]pyrimidin-2(1H)-one]
[1]; male, Balb/c, mouse, in vivo, po, 10 mg/kg
  half-life: 60 min
hERG potassium channel
  IC50: > 30 µM
[2]; human, 0.5 μM
  Residual rate (%) 0 min: 100.00%
  Residual rate (%) 15 min: 102.34%
  Residual rate (%) 30 min: 100.28%
  Residual rate (%) 60 min: 90.27%
  Residual rate (%) 120 min: 87.22%
[3]
  Residual rate (%) 0 min: 100.00%
  Residual rate (%) 15 min: 95.57%
  Residual rate (%) 30 min: 96.73%
  Residual rate (%) 60 min: 93.97%
  Residual rate (%) 120 min: 91.93%
CYP450 1A2
  IC50: 66.7 µM

## P-4-((2S,5R)-4-acryloyl-2,5-dimethylpiperazin-1-yl)-6-fluoro-7-(2-fluoro-6-hydroxyphenyl)-1-(2-isopropyl-4-(methylthio)pyridin-3-yl)pyrido[2,3-d]pyrimidin-2(1H)-one [Embodiment 2-1]
[1]; [4]
  AUC0-∞: 1373 ng·h/mL
  Cmax: 1823 ng/mL
  MRT: 42 min
  T1/2: 36 min
  Tmax: 15 min
hERG potassium channel
  IC50: > 30 µM
[2]; human plasma, 37° C.
  Residual rate (%) 0 min: 100.00%
  Residual rate (%) 15 min: 97.39%
  Residual rate (%) 30 min: 98.79%
  Residual rate (%) 60 min: 94.50%
  Residual rate (%) 120 min: 87.91%
[3]
  Residual rate (%) 0 min: 100.00%
  Residual rate (%) 15 min: 99.04%
  Residual rate (%) 30 min: 101.03%
  Residual rate (%) 60 min: 97.16%
  Residual rate (%) 120 min: 84.63%
CYP450 1A2
  IC50: > 100 µM
